Data from US10155027B2, “Alpha-galactosidase A and 1-deoxygalactonojirimycin co-formulation for the treatment of fabry disease” (Amicus Therapeutics, Inc., priority 2012, dated 2018).
Where a name gives a salt, the structure may show the parent alone. Read-outs that look alike come from different tables or passages of the source.

Assays:
[1] = General toxicology NOAEL, monkey; format: in vivo
[2] = Phase 1 crossover absolute bioavailability, 150 mg oral capsule vs 150 mg IV infusion (Cohort 4); format: in vivo, human; conditions: for Vd: iv, 150 mg; for Cmax: read-out: Cmax (geometric mean); for AUC(0-t): read-out: AUC0-t (geometric mean); for AUC(0-inf): read-out: AUC0-∞ (geometric mean); for Tmax: read-out: tmax (median); for half-life: read-out: t½ (arithmetic mean) (converted)
Experimental: Healthy volunteers received migalastat HCl (DGJ HCl) via the intravenous (IV) route of administration to evaluate safety, tolerability, and pharmacokinetics. Another study was performed to determine the absolute bioavailability of migalastat after an oral capsule dose as compared to an IV administered dose of migalastat HCl in healthy volunteers. The absolute bioavailability arm was added to determine the exposure ratio of a 150 mg oral dose relative to a 150 mg dose administered as an IV infusion.
Type of Study: This Phase 1 study was a single-center study consisting of 2 designs. Cohorts 1, 2, and 3 were performed according to a randomized, double-blind, placebo-controlled, single ascending dose (SAD) IV study design to evaluate the safety, tolerability, and PK of IV administered migalastat HCl or IV administered placebo in healthy subjects. Cohort 4 was an open-label, randomized two-way crossover arm designed to assess the absolute bioavailability of orally administered migalastat HCl relative to IV administered migalastat HCl in healthy subjects.
Cohort 4 consisted of 2 sequential treatment periods with a washout period of 7 days between study drug administrations (FIG. 13). Cohort 4 enrolled 10 subjects all of whom received active drug (no placebo was administered). Cohort 4 was randomized such that 5 subjects received the oral formulation and 5 subjects received the IV formulation during Period 1, followed by the alternate formulation during Period 2. • * During Period 1, all Day −1 through Day 3 assessments were performed. ** The washout period was 7 days. *** During Period 2, subjects repeated all Day −1 through Day 3 assessments.
Cohort 4: Period 1: 150 mg migalastat HCl capsule (n=5) or 150 mg migalastat HCl via IV infusion (n=5). Period 2: 150 mg migalastat HCl capsule (n=5) or 150 mg migalastat HCl via IV infusion (n=5)
The migalastat HCl used for infusion was 50 mg/ml and the placebo was 0.9% sodium chloride. The oral migalastat HCl was administered as a 150 mg gelatin […].

[3] = predicted exposure at 0.3 mg/kg IV
[4] = predicted exposure at 10.0 mg/kg IV
[5] = predicted human exposure at 0.3 mg/kg IV
[6] = predicted human exposure at 10.0 mg/kg IV

With `OC[C@H]1NC[C@H](O)[C@@H](O)[C@H]1O` [migalastat HCl, (2R,3S,4R,5S)-2-(hydroxymethyl) piperdine-3,4,5-triol] the “Fold Cover to AUC from human oral 1250 mg, Max” value [3] was 62, the “Fold Cover to AUC from human oral 1250 mg, Median” value [3] was 39 and the “Fold Cover to AUC from human oral 1250 mg, Min” value [3] was 15.5. For the same molecule, the “Fold Cover to Cmax from human oral 1250 mg, Max” value [3] was 61, the “Fold Cover to Cmax from human oral 1250 mg, Median” value [3] was 36 and the “Fold Cover to Cmax from human oral 1250 mg, Min” value [3] was 2.6. The “Fold Cover to AUC from human oral 1250 mg, Max” value [4] was 1.89, the “Fold Cover to AUC from human oral 1250 mg, Median” value [4] was 1.19 and the “Fold Cover to AUC from human oral 1250 mg, Min” value [4] was 0.47. For the same molecule, the “Fold Cover to Cmax from human oral 1250 mg, Max” value [4] was 1.81, the “Fold Cover to Cmax from human oral 1250 mg, Median” value [4] was 1.07 and the “Fold Cover to Cmax from human oral 1250 mg, Min” value [4] was 0.08. It also gave an AUC ([1]; monkey, in vivo, 500 mg/kg/day) of 30600 ng·h/mL, a Cmax ([1]; monkey, in vivo, 500 mg/kg/day) of 24500 ng/mL and an NOAEL ([1]; monkey, in vivo, general toxicology) of 500 mg/kg/day. For the same molecule, the “Fold Cover to NOAEL AUC, Monkey” value [1, 5] was 165, the “Fold Cover to NOAEL Cmax, Monkey” value [1, 5] was 68 and the “Fold Cover to NOAEL AUC, Monkey” value [1, 6] was 4.98. The “Fold Cover to NOAEL Cmax, Monkey” value [1, 6] was 2.02, the “CLT (arithmetic mean)” value ([2]; 150 mg IV) was 9.34 L/h and the “geometric mean AUC0-t and AUC0-∞, IV relative to oral” value ([2]; 150 mg IV vs 150 mg oral) was “approximately 1.3 fold”. For the same molecule, the “geometric mean Cmax, IV relative to oral” value ([2]; 150 mg IV vs 150 mg oral) was “approximately 1.9 fold”, the “maximum arithmetic mean plasma concentrations, IV relative to oral” value ([2]; 150 mg IV vs 150 mg oral) was “approximately 2 fold” and the “CLT/F (arithmetic mean)” value ([2]; 150 mg oral) was 12.8 L/h. For the same molecule, the “absolute oral bioavailability based on AUC0-t (Percentage Test/Reference)” value ([2]; 150 mg oral vs 150 mg IV) was 74.3%, the “absolute oral bioavailability based on AUC0-∞ (Percentage Test/Reference)” value ([2]; 150 mg oral vs 150 mg IV) was 74.6% and the Vd ([2]; human, plasma, 150 mg IV, read-out: Vss (arithmetic mean)) was 30.2 L. For the same molecule, the Vd ([2]; human, plasma, 150 mg IV, read-out: Vz (arithmetic mean)) was 59.4 L, the Cmax ([2]; human, plasma, 150 mg IV, 2-hour infusion) was 3380 ng/mL and the AUC(0-t) ([2]; human, plasma, 150 mg IV) was 13200 ng·h/mL. For the same molecule, the AUC(0-inf) ([2]; human, plasma, 150 mg IV) was 13300 ng·h/mL, the Tmax ([2]; human, plasma, 150 mg IV) was 1.93 h and the half-life ([2]; human, plasma, 150 mg IV) was 4.54 h. For the same molecule, the AUC(0-t) ([2]; human, plasma, 150 mg oral) was 9780 ng·h/mL, the AUC(0-inf) ([2]; human, plasma, 150 mg oral) was 9880 ng·h/mL and the Cmax ([2]; human, plasma, 150 mg oral) was 1790 ng/mL. The Vd/F ([2]; human, plasma, 150 mg oral, read-out: Vz/F (arithmetic mean)) was 123 L, the Tmax ([2]; human, plasma, 150 mg oral) was 2.75 h and the half-life ([2]; human, plasma, 150 mg oral) was 7.28 h.
